Measured values published in patent US20260055097A9, “NRF2 PROTEIN DEGRADERS” (Ganymede Oncology, Inc., priority 2022, published 2026).

How the values were obtained:
LK-2 = assay: Cancer cell viability, LK-2 (CellTiter-Glo); assay type: cell-based; details: Homo sapiens, LK-2, 72 h, LK-2 cells, 3 days, read-out: Cellular IC50 (μM) LK-2
Procedure, shortened: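 A549 and LK-2 cells were seeded overnight at 20 K/mL and 35 K/mL respectively. They were then exposed for 3 days to nine three-fold dilutions, typically from 30 µM final. Viability was read as CellTiter-Glo luminescence after a 15 min lysis.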

[1] = system: various cancer cell lines; assay: Cancer cell testing, inhibitory activity in various cancer cell lines (CellTiter-Glo, 72 hours); assay type: cell-based
Method: The inhibitory activity of representative Compounds of the Disclosure was tested in various cancer cell lines according to the following protocol.
Cells were harvested from flasks into cell culture media and cell numbers were counted. Cells were then diluted with culture medium to the desired density, and 40 μL of cell suspension were added into each well of a 384-well cell culture plate (Corning, #3764). Plates were covered with lids and placed at room temperature for 30 minutes without shaking, and then transferred into a 37° C. 5% CO2 incubator.
Cpd. Nos. 30 and 34 were dissolved in DMSO to form a 10 mM stock solution. Paclitaxel as the control compound was dissolved in DMSO to form a 0.33 mM stock solution. 45 μL of stock solution was transferred to a 384 pp-plate and 3-fold, 10-point dilutions were performed by transferring 15 μL of compound into 30 μL of DMSO using a TECAN (EVO200) liquid handler. Plates were spun at room temperature at 1,000 RPM for 1 minute, and shaken at a plate shaker for 2 minutes. […] of diluted compound were transferred from compound source plate into the cell plate. After compound treatment for 72 hours, CTG detection was performed for compound treatment plates as described in the “Detection” section.
CellTiter Glo reagents were thawed and equilibrated to room temperature before the experiment. Plates were removed from incubators and equilibrated at room temperature for 15 minutes. 40 μL of CellTiter-Glo reagent was added to each well to be detected at 1:1 to culture medium. Then, plates were placed at room temperature for 30 min followed by reading on Ensight.
Inhibition activity was calculated following the formula below:
[formula] • HC: 0.3% DMSO, LC: 1 μM Paclitaxel
IC50S were calculated by fitting the Curve using Xlfit (v5.3.1.3) according to the following equation: […]

## Cc1sc(NC(=O)Cc2ccc(F)c(OCCOCCNc3ccc4c(c3)CN(C3CCC(=O)NC3=O)C4=O)c2)nc1-c1ccc2c(c1)CCN2C(=O)c1cncn1C (stereo not shown) [Cpd. No. 30, 2-(3-(2-(2-((2-(2,6-dioxopiperidin-3-yl)-1-oxoisoindolin-5-yl)amino)ethoxy)ethoxy)-4-fluorophenyl)-N-(5-methyl-4-(1-(1-methyl-1H-imidazole-5-carbonyl)indolin-5-yl)thiazol-2-yl)acetamide]
LK-2
  IC50: 0.003 µM
[1]; HCC15, HCC-15, LUNG, KEAP1 p.G364C
  IC50: 4.1 nM
[1]; HEC59, UTERINE/ENDOMETRIAL, NRF2 p.N329D
  IC50: 2.8 nM
[1]; HEC151, UTERINE/ENDOMETRIAL, KEAP1 p.A34S, NRF2 p.L23GfsTer5
  IC50: 4.8 nM
[1]; HEC-251, HEC251, UTERINE/ENDOMETRIAL, KEAP1 p.Q227R, NRF2 p.K516T
  IC50: < 1.5 nM
[1]; HEC-265, UTERINE/ENDOMETRIAL, KEAP1 p.R483C
  IC50: 8.7 nM
[1]; HO1U1, HEAD & NECK, NRF2 p.E82D
  IC50: 12.8 nM
[1]; Homo sapiens, A549, A549, LUNG, KEAP1 p.G333C
  IC50: 4.3 nM
[1]; Homo sapiens, COR-L88, CORL88, LUNG, NRF2 p.Q26P
  IC50: < 1.5 nM
[1]; Homo sapiens, EBC-1, EBC1, LUNG, NRF2 p.D77V
  IC50: 11.3 nM
[1]; Homo sapiens, HCC44, HCC44, UTERINE/ENDOMETRIAL, KEAP1 p.F211C
  IC50: 397 nM
[1]; Homo sapiens, HCC95, HCC-95, LUNG, no KEAP1/NRF2 mutation listed
  IC50: 302 nM
[1]; Homo sapiens, HEC-1-A, HEC1A, UTERINE/ENDOMETRIAL, KEAP1 p.Y33C, NRF2 G31R
  IC50: 2.9 nM
[1]; Homo sapiens, HEC-1B, HEC1B, UTERINE/ENDOMETRIAL, NRF2 p.G31R
  IC50: 31.9 nM
[1]; Homo sapiens, KYSE-70, KYSE70, ESOPHAGEAL, NRF2 p.W24C
  IC50: 8.8 nM
[1]; Homo sapiens, KYSE-180, KYSE180, ESOPHAGEAL, NRF2 p.P278Q
  IC50: 4 nM
[1]; Homo sapiens, KYSE-520, KYSE520, ESOPHAGEAL, NRF2 p.T80I
  IC50: 1.7 nM
[1]; Homo sapiens, MES-SA, MESSA, UTERINE/ENDOMETRIAL, NRF2 p.E79K
  IC50: 4.7 nM
[1]; Homo sapiens, MRC5, MRC-5, NORMAL LUNG FIBROBLAST
  IC50: 12.5 nM
[1]; Homo sapiens, NCI-H23, NCI-H23, LUNG, KEAP1 p.Q193H
  IC50: 126 nM
[1]; Homo sapiens, NCI-H358, NCI-H358, LUNG, no KEAP1/NRF2 mutation listed
  IC50: 11.6 nM
[1]; Homo sapiens, NCI-H460, NCI-H460, LUNG, KEAP1 p.D236H
  IC50: 15500 nM
[1]; Homo sapiens, NCI-H1792, NCI-H1792, LUNG, KEAP1 p.G462W
  IC50: 6.5 nM
[1]; Homo sapiens, NCI-H1944, NCI-H1944, LUNG, KEAP1 p.R320L
  IC50: 25.2 nM
[1]; Homo sapiens, NCI-H2030, NCI-H2030, LUNG, KEAP1 p.V568F
  IC50: 169 nM
[1]; Homo sapiens, NCI-H2122, NCI-H2122, LUNG, KEAP1 p.A170_R204del
  IC50: 54.9 nM
[1]; Homo sapiens, NCI-H2126, NCI-H2126, LUNG, KEAP1 p.R320L
  IC50: 98.9 nM
[1]; Homo sapiens, NCI-H2228, NCI-H2228, LUNG, NRF2 p.G31A
  IC50: 12.6 nM
[1]; Homo sapiens, RL95-2, RL95-2, UTERINE/ENDOMETRIAL, KEAP1 p.R116W
  IC50: 2.8 nM
[1]; Homo sapiens, SHP77, SHP-77, LUNG, KEAP1 p.D294Y
  IC50: 29.6 nM
[1]; Homo sapiens, UMC-11, UMC11, LUNG, KEAP1 p.G571A
  IC50: 5.8 nM
[1]; JHOC-5, UTERINE/ENDOMETRIAL, KEAP1 p.R483H
  IC50: 11.5 nM
[1]; LK-2, LUNG, NRF2 p.E79K
  IC50: < 1.5 nM
[1]; MORCPR, LUNG, KEAP1 p.K551SfsTer44
  IC50: 3.4 nM
[1]; NCI-H322, NCI-H322, LUNG, KEAP1 p.R460S
  IC50: 3.9 nM
[1]; NCI-H920, LUNG, KEAP1 p.G603V
  IC50: 191 nM
[1]; NCI-H1435, NCI-H1435, LUNG, KEAP1 p.R413L
  IC50: 38 nM
[1]; NCI-H1688, NCI-H1688, LUNG, KEAP1 p.G511S
  IC50: < 2 nM
[1]; NCI-H2066, NCI-H2066, LUNG, KEAP1 p.P361L
  IC50: 4.4 nM
[1]; NCI-H2110, NCI-H2110, LUNG, KEAP1 p.G429C
  IC50: 5.1 nM
[1]; NCI-H2172, NCI-H2172, LUNG, KEAP1 p.G430C
  IC50: 5.9 nM
[1]; OE21, OE21, ESOPHAGEAL, NRF2 p.D318H
  IC50: 156 nM
[1]; RERF-LC-Sq1, RERFLCSQ1, LUNG, NRF2 p.D29H
  IC50: 12.6 nM
[1]; RMUG-S, UTERINE/ENDOMETRIAL, KEAP1 p.G603V
  IC50: 21.5 nM
[1]; SNU2535, LUNG, NRF2 p.D29H
  IC50: 8.9 nM
[1]; SW579, SW579, HEAD & NECK, NRF2 p.D77Y
  IC50: 6.7 nM
